Test results taken from patent US11414404B2, “Compounds for the treatment of BRAF-associated diseases and disorders” (Array BioPharma Inc., priority 2019, dated 2022).
Structures can show the parent of a compound that is named as a salt.

Columns and labels:
[1] = biological target: BCRP (Homo sapiens (Human), UniProt Q9UNQ0); test: BCRP MDCKII permeability assay: efflux ratio; conditions: dog
[2] = biological target: P-gp (MDR1) (Homo sapiens (Human), UniProt P08183); test: MDR1 LLC-PK1 permeability assay: efflux ratio; conditions: pig, LLC-PK1
[3] = MDR1 LLC-PK1 and BCRP MDCKII permeability assay: permeability coefficient (Papp)
[4] = biological target: full-length FLAG-tagged B-Raf(V600E) (Homo sapiens (Human), UniProt P15056, V600E); test: BRAF V600E enzyme assay (TR-FRET competitive displacement of fluorescent tracer); format: binding; conditions: averaged IC50; 60 min at ambient temperature; 11-point dosing, top dose 10 μM
Excerpt: (§1) A competitive displacement assay was configured for B-Raf that monitors the amount of a fluorescently-tagged “tracer” bound to B-Raf via TR-FRET from an anti-tag Eu-labeled antibody also bound to B-Raf.
(§2) [formula] • where: • Xmax Average Uninhibited Controls • Xmin Average Background
(§3) A 4-parameter logistic model was the fit to the POC data for each compound.

[5] = biological target: N-terminally GST-tagged B-Raf(V600K) (Homo sapiens, UniProt P15056, V600K); test: BRAF V600K enzyme assay (TR-FRET competitive displacement of fluorescent tracer); format: binding; conditions: averaged IC50; 60 min at ambient temperature; 11-point dosing, top dose 10 μM
Excerpt: as §1, §2, §3

[6] = PK (free brain-to-free plasma ratio) (mouse); format: in vivo; conditions: mouse; unbound brain-to-unbound plasma concentration ratio; male CD-1 mice; oral gavage 10 mg/kg; sampling 2-24 hours; read-out: B/P ratio (free)
Procedure: PK (Free Brain-to-Free Plasma Ratio) (Mouse)
The ability of representative compounds to penetrate the BBB in mice was determined by evaluating the unbound brain-to-unbound plasma (also referred to as free brain-to-free plasma) concentration ratio in male CD-1 mice.
Brain samples were stored at −20±5° C. prior to analysis. Concentrations of test compound in mouse brain homogenate were determined by liquid chromatography tandem mass spectrometry (LC-MS/MS) following protein precipitation with acetonitrile. A 12-point calibration curve, ranging from 0.5 to 10,000 ng/mL, was prepared in duplicate. A solution of 400 μg/mL of test compound in dimethyl sulfoxide (DMSO) was serially diluted (3-fold) in 100% DMSO, and then 2.5 μL of each standard solution was added to 100 μL of naïve male CD-1 mice brain homogenate. To mimic the extraction in the standard curve, 2.5 μL of DMSO was added to all test samples. Both calibration and test brain homogenate samples were spiked with 10 μL of an IS (1 μg/mL of a structural analog). Brain homogenate was generated by adding 0.75 mL of 4:1 water:MeOH to each brain sample followed by homogenization for 1 minute with bead beater tubes a 6 m/s using an MP Fast Prep-24®. Proteins were precipitated from 100 μL of brain homogenate sample by the addition of 300 μL of acetonitrile. […] A 100 μL aliquot of each supernatant was transferred via a 550 μL Personal Pipettor (Apricot Designs, Monrovia, Calif.) to 96-well plates and diluted 1:1 with HPLC grade water. The resulting plates were sealed with aluminum for LC-MS/MS analysis.
Brain-to-plasma ratios were calculated using the concentration of compound measured in the brain divided by the concentration of compound measured in the plasma. Brain-to-plasma ratios were always generated from a single animal and time point. Free brain-to-free plasma ratios were calculated by multiplying the brain-to-plasma ratio by the in vitro brain homogenate free fraction divided by the in vitro plasma free fraction using the following equation: (B/P)*(Bfu/Pfu).

Sequence of N-terminally GST-tagged B-Raf(V600K) (P15056 2-766 V600K limits assumed): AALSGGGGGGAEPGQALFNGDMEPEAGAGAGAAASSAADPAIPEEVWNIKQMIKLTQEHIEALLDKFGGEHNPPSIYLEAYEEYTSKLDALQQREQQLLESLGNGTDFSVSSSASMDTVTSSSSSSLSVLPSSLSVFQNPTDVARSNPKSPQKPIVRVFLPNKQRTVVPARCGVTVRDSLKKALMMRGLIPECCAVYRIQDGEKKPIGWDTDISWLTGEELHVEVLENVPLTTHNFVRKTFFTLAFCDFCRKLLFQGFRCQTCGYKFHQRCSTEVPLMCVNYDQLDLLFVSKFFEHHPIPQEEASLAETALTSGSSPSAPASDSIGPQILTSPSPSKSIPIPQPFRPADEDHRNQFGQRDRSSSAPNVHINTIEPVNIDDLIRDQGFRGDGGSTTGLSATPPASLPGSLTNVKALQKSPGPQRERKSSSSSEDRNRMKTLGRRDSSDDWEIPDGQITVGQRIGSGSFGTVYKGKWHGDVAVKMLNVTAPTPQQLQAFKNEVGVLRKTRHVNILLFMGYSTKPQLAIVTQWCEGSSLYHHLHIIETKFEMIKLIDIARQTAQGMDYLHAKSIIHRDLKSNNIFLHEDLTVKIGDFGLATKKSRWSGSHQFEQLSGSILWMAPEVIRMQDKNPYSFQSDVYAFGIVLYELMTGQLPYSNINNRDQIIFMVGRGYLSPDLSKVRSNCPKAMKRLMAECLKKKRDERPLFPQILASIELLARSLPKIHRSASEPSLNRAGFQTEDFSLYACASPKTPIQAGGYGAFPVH
Sequence of full-length FLAG-tagged B-Raf(V600E) (P15056 whole entry V600E): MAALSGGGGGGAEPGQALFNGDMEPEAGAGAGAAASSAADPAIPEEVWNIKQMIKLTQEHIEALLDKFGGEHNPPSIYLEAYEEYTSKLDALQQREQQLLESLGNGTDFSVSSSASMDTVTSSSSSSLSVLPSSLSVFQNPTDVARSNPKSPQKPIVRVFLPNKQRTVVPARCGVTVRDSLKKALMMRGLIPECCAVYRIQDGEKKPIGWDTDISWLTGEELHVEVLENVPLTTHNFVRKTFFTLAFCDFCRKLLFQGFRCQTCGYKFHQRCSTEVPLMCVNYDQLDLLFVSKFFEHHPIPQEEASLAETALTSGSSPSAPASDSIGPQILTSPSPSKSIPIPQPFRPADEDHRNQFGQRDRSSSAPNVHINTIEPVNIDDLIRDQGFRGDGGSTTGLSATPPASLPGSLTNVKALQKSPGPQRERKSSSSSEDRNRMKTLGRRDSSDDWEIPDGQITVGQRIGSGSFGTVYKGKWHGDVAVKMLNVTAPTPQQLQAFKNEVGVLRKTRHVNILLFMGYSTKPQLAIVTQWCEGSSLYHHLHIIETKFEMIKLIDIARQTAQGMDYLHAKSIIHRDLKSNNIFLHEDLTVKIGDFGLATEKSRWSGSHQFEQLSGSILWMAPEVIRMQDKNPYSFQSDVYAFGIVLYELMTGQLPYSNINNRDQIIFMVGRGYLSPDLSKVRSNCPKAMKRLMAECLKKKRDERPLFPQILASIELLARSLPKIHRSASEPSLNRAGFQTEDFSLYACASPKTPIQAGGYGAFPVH
Sequence of BCRP (Q9UNQ0 whole entry, species assumed): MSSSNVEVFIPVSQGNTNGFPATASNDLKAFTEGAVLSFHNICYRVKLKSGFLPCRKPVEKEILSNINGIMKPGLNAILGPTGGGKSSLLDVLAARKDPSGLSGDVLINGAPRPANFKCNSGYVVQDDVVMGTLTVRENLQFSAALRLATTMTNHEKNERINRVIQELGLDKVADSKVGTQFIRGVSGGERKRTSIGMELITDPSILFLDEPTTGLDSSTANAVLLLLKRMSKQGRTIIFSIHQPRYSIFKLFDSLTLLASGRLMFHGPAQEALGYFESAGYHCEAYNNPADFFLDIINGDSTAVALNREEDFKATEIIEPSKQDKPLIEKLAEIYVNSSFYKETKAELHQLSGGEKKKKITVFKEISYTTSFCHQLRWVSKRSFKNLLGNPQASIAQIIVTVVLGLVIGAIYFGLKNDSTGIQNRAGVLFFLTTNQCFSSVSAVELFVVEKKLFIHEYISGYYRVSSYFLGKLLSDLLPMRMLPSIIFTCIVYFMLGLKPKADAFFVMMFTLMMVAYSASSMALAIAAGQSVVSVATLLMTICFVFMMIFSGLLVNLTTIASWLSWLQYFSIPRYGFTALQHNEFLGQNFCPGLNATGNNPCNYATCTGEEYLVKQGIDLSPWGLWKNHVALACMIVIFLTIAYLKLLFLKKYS
Sequence of P-gp (MDR1) (P08183 whole entry, species assumed): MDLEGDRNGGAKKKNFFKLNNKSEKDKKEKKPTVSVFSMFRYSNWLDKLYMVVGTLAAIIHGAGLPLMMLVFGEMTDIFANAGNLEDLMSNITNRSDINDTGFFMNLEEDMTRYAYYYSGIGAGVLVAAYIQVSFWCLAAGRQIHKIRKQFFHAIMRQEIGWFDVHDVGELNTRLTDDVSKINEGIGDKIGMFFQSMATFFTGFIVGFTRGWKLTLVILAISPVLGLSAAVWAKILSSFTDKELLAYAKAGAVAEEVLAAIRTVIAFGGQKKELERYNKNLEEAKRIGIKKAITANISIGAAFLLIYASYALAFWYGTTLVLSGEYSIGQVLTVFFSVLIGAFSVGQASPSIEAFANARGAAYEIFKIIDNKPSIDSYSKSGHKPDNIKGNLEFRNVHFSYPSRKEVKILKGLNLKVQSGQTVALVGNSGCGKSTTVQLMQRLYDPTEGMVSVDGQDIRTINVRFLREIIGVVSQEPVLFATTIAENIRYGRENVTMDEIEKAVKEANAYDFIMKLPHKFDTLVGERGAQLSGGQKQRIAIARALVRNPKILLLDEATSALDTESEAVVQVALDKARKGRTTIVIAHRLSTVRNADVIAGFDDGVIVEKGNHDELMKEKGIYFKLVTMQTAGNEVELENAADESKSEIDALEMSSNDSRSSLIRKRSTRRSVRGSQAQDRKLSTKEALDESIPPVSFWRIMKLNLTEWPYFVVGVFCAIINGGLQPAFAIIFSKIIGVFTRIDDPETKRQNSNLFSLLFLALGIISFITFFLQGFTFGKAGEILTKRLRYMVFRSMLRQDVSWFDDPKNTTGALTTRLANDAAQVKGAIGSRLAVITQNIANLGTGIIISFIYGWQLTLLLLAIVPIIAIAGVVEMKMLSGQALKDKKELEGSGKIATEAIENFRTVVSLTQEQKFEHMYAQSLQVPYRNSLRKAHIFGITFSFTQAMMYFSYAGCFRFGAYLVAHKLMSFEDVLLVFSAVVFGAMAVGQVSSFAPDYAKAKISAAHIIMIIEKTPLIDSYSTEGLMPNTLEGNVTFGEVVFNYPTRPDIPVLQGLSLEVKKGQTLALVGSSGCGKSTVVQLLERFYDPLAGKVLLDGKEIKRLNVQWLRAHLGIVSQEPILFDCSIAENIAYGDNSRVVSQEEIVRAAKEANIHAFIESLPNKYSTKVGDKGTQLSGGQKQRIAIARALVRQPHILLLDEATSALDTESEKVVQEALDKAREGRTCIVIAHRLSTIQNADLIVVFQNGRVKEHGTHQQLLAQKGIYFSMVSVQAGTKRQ

Row | SMILES | efflux ratio at 2 h, 1 µM [1] | efflux ratio at 2 h, 1 µM [2] | Papp at 2 h, 1 µM [3] | IC50 [4] | IC50 [5] | Kp,uu (unbound brain/unbound plasma ratio) [6]
1 | CCCS(=O)(=O)Nc1ccc(F)c(Nc2ccc3ncn(C)c(=O)c3c2C)c1Cl [Example 9, N-(2-chloro-3-((3,5-dimethyl-4-oxo-3,4-dihydroquinazolin-6-yl)amino)-4-fluorophenyl)propane-1-sulfonamide] | 1.23 | 1.26 | 27.8 ×10⁻⁶ cm/s | 19.7 nM | 6.5 nM | 0.76 to 1.04
2 | Cc1c(Nc2cccc(NS(=O)(=O)CCCF)c2Cl)ccc2ncn(C)c(=O)c12 [Example 4] | 1.85 | 1.14 | 34.5 ×10⁻⁶ cm/s | 16.1 nM | 8.1 nM | 0.35 to 1.6
3 | Cn1cnc2ccc(Nc3c(F)ccc(NS(=O)(=O)CCCF)c3Cl)c(Cl)c2c1=O [WO 2012/118492 Ex. 37, reference compound] | 8.6 | 1.9 | – | – | – | 0.12 to 0.15
4 | CCCS(=O)(=O)Nc1cc(F)c(F)c(Nc2ccc3ncn(C)c(=O)c3c2C)c1Cl [Example 7, N-(2-chloro-3-((3,5-dimethyl-4-oxo-3,4-dihydroquinazolin-6-yl)amino)-4,5-difluorophenyl)propane-1-sulfonamide] | 1.64 | 1.3 | 26.3 ×10⁻⁶ cm/s | 1.3 nM | 2.2 nM | 0.87 to 1.19
5 | CCCS(=O)(=O)Nc1ccc(F)c(Nc2ccc3ncn(C)c(=O)c3c2C)c1F [Example 1, N-(3-((3,5-dimethyl-4-oxo-3,4-dihydroquinazolin-6-yl)amino)-2,4-difluorophenyl)propane-1-sulfonamide] | 3.4 | 1.68 | 34.9 ×10⁻⁶ cm/s | 42.7 nM | 8.5 nM | 0.3 to 0.62
6 | CCCS(=O)(=O)Nc1cc(Cl)cc(Oc2ccc3ncn(C)c(=O)c3c2C)c1F [Example 70, N-(5-chloro-3-((3,5-dimethyl-4-oxo-3,4-dihydroquinazolin-6-yl)oxy)-2-fluorophenyl) propane-1-sulfonamide] | 1.17 | 1.73 | 19.1 ×10⁻⁶ cm/s | 2.55 nM | – | –
7 | Cn1cnc2ccc(Nc3c(F)ccc(NS(=O)(=O)CCCF)c3Cl)cc2c1=O [WO 2012/118492 Example 34, reference compound] | 7.68 | 8.89 | – | – | – | 0.08 to 0.14
8 | CCCS(=O)(=O)Nc1ccc(F)c(Nc2ccc3ncn(CC4CC4)c(=O)c3c2C)c1Cl [Example 38, N-(2-chloro-3-((3-(cyclopropylmethyl)-5-methyl-4-oxo-3,4-dihydroquinazolin-6-yl)amino)-4-fluorophenyl)propane-1-sulfonamide] | 1.57 | 1.15 | 20.6 ×10⁻⁶ cm/s | 28.3 nM | – | –
9 | CCCS(=O)(=O)Nc1ccc(F)c(Nc2ccc3ncn([C@H]4CCOC4)c(=O)c3c2C)c1Cl [Example 35, (S)-N-(2-chloro-4-fluoro-3-((5-methyl-4-oxo-3-(tetrahydrofuran-3-yl)-3,4-dihydroquinazolin-6-yl)amino)phenyl)propane-1-sulfonamide trifluoroacetate] | 1.78 | 1.92 | 29.4 ×10⁻⁶ cm/s | 24.5 nM | – | –
10 | CCCS(=O)(=O)Nc1cccc(Oc2ccc3ncn(C)c(=O)c3c2C)c1F [Example 68, N-(3-((3,5-dimethyl-4-oxo-3,4-dihydroquinazolin-6-yl)oxy)-2-fluorophenyl)propane-1-sulfonamide] | 1.3 | 1.2 | 28.5 ×10⁻⁶ cm/s | 33 nM | – | –
11 | CCCS(=O)(=O)Nc1ccc(F)c(Nc2ccc3ncn(C)c(=O)c3c2C)c1C#N [Example 28, N-(2-cyano-3-((3,5-dimethyl-4-oxo-3,4-dihydroquinazolin-6-yl)amino)-4-fluorophenyl)propane-1-sulfonamide] | 33 | 6.46 | 26.8 ×10⁻⁶ cm/s | 2 nM | – | –
12 | Cc1c(Nc2c(F)ccc(NS(=O)(=O)N3CC[C@@H](F)C3)c2Cl)ccc2ncn(C)c(=O)c12 [Example 22, (R)—N-(2-chloro-3-((3,5-dimethyl-4-oxo-3,4-dihydroquinazolin-6-yl)amino)-4-fluorophenyl)-3-fluoropyrrolidine-1-sulfonamide] | 1.49 | 1.63 | 34.3 ×10⁻⁶ cm/s | 13.7 nM | – | –
13 | CCCS(=O)(=O)Nc1ccc(F)c(Nc2ccc3ncn(Cc4ccccc4)c(=O)c3c2C)c1Cl [Example 29, N-(3-((3-benzyl-5-methyl-4-oxo-3,4-dihydroquinazolin-6-yl)amino)-2-chloro-4-fluorophenyl)propane-1-sulfonamide] | 0.87 | 1.61 | 12 ×10⁻⁶ cm/s | 174 nM | – | –
14 | Cc1c(Nc2c(F)cnc(NS(=O)(=O)CCCF)c2F)ccc2ncn(C)c(=O)c12 [Example 17, N-(4-((3,5-dimethyl-4-oxo-3,4-dihydroquinazolin-6-yl)amino)-3,5-difluoropyridin-2-yl)-3-fluoropropane-1-sulfonamide] | 25.3 | 5.07 | 6.65 ×10⁻⁶ cm/s | 9.7 nM | – | –
15 | CCCS(=O)(=O)Nc1ccc(Cl)c(Nc2ccc3ncn(C)c(=O)c3c2C)c1F [Example 40, N-(4-chloro-3-((3,5-dimethyl-4-oxo-3,4-dihydroquinazolin-6-yl)amino)-2-fluorophenyl)propane-1-sulfonamide] | 2.87 | 2.2 | 28.7 ×10⁻⁶ cm/s | 43.9 nM | – | –
16 | CCCS(=O)(=O)Nc1ncc(Cl)c(Nc2ccc3ncn(C)c(=O)c3c2C)c1Cl [Example 15, N-(3,5-dichloro-4-((3,5-dimethyl-4-oxo-3,4-dihydroquinazolin-6-yl)amino)pyridin-2-yl)propane-1-sulfonamide] | 4.5 | 1.87 | 24.1 ×10⁻⁶ cm/s | 4.55 nM | – | –
17 | Cc1c(Nc2c(F)c(F)cc(NS(=O)(=O)CCCF)c2Cl)ccc2ncn(C)c(=O)c12 [Example 8, N-(2-chloro-3-((3,5-dimethyl-4-oxo-3,4-dihydroquinazolin-6-yl)amino)-4,5-difluorophenyl)-3-fluoropropane-1-sulfonamide] | 11.2 | 1.61 | 27.5 ×10⁻⁶ cm/s | 1.45 nM | – | –
18 | CCCS(=O)(=O)Nc1cc(F)cc(Nc2ccc3ncn(C)c(=O)c3c2C)c1Cl [Example 12, N-(2-chloro-3-((3,5-dimethyl-4-oxo-3,4-dihydroquinazolin-6-yl)amino)-5-fluorophenyl)propane-1-sulfonamide] | 1.13 | 0.93 | 27 ×10⁻⁶ cm/s | 9.75 nM | – | –
19 | Cc1c(Oc2c(F)ccc(NS(=O)(=O)CCCF)c2Cl)ccc2ncn(C)c(=O)c12 [Example 67, N-{2-chloro-3-[(3,5-dimethyl-4-oxo-3,4-dihydroquinazolin-6-yl)oxy]-4-fluorophenyl}-3-fluoropropane-1-sulfonamide] | 1.8 | 1.8 | 27.6 ×10⁻⁶ cm/s | 2 nM | 2.8 nM | 0.4 to 0.49
20 | CCCS(=O)(=O)Nc1ccc(F)c(Nc2ccc3ncn(C4CCCC4)c(=O)c3c2C)c1Cl [Example 39, N-(2-chloro-3-((3-cyclopentyl-5-methyl-4-oxo-3,4-dihydroquinazolin-6-yl)amino)-4-fluorophenyl)propane-1-sulfonamide trifluoroacetate] | 1.33 | 1.29 | 14.2 ×10⁻⁶ cm/s | 52.6 nM | – | –
